Consider 25 compounds from ChEMBL document CHEMBL1201862, “PubChem BioAssay data set” (2004).

Among the test systems are DMS-273; HOP-18; KM-20L2; LXFL 529; M19-MEL; RXF 631; SNB-78; XF498; DMS-114.
What all share (test): NCI-60 cell line screen, 48 h

The structures appear in SMILES notation. Values joined by “and” are separate entries in the source; they are usually repeats but may differ in a detail not shown here. Identical values can stand only once.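 Step 1: Grow cells in 96-well plates. Step 2: Expose to compound for 48 hours at 5 concentrations. Step 3: Interpolate endpoints linearly; if unreached, use highest concentration. At the GI50, growth is halved.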 Active and inactive are the calls of the source. No stated cut-off is given here; in the data, active = GI50 up to about 1.1 µM and inactive = higher.

For the compound `O=C1/C(=C/c2ccc(Cl)c(Cl)c2)CNC/C1=C\c1ccc(Cl)c(Cl)c1`, the GI50 in the assay with DMS-273 is 5.73 µM (inactive); in the assay with HOP-18 it was 33.7 µM (inactive); with KM-20L2 it was 7.4 µM (inactive); in the assay on LXFL 529 it was 3.97 µM (inactive); in the assay on M19-MEL, 22.3 µM (inactive); in the assay on RXF 631, 36.3 µM (inactive). Further, the GI50 was > 57.4 µM (inactive) with SNB-78 and 19.5 µM (inactive) in the assay on XF498.

With `CC(=O)CC(=O)N(CCN(C(=O)CC(C)=O)c1ccccc1)c1ccccc1`, the GI50 with DMS-114, in the assay with HOP-18, in the assay on KM-20L2, in the assay on LXFL 529, in the assay with M19-MEL and with SNB-78 was > 100 µM (inactive) each time. Also, in the assay on XF498, the GI50 was > 100 µM (inactive).

`COC(=O)c1c[nH]c2nc(N3CCOCC3)nn2c1=O`: the GI50 in the assay with DMS-114, in the assay with DMS-273, in the assay on KM-20L2, in the assay on M19-MEL and in the assay on SNB-78 was > 100 µM (inactive) throughout.

For the compound `COc1ccc(Cc2cc(OC)c(OC)c(OC)c2)cc1O`, the GI50 with DMS-114 is 0.127 µM (active); in the assay with DMS-273, 0.0713 µM (active); in the assay with KM-20L2 it was 51.6 µM (inactive); in the assay on LXFL 529, 0.82 µM (active); in the assay with M19-MEL, 0.0861 µM (active); in the assay with RXF 631, 25.2 µM (inactive). Besides, the GI50 in the assay with XF498 was 4.73 µM (inactive).

For the compound `CCOc1ccccc1NC(=O)C1=C(C)NC(C)=C(C(=O)Nc2ccccc2OCC)C1c1cccc([N+](=O)[O-])c1`, the GI50 in the assay with DMS-114 is 46.3 µM (inactive); with DMS-273, 72.1 µM (inactive); in the assay with KM-20L2, 89.1 µM (inactive); in the assay on LXFL 529, 24 µM (inactive); in the assay on M19-MEL, > 100 µM (inactive); in the assay on SNB-78, 23.5 µM (inactive). The GI50 in the assay on XF498 was 17.7 µM (inactive).

Turning to `COc1ccc(C2ON(c3cccc(C)n3)CC=C2C)cc1` (stereo unspecified), the GI50 is 40.7 µM (inactive) in the assay on DMS-114; 26.1 µM (inactive) with DMS-273; > 100 µM (inactive) in the assay with HOP-18; 47.1 µM (inactive) with KM-20L2; 37.2 µM (inactive) in the assay on LXFL 529; 34.6 µM (inactive) with M19-MEL. For the same compound, the GI50 is 48.2 µM (inactive) with RXF 631, 37.4 µM (inactive) in the assay with SNB-78 and 38.3 µM (inactive) in the assay on XF498.

In the case of `CC(C)N(C(=O)C12C3C4C1C1C2C3C41I)C(C)C` (stereo unspecified), the GI50 in the assay on DMS-114, in the assay on DMS-273, with LXFL 529, with M19-MEL, in the assay on RXF 631 and with SNB-78 was > 100 µM (inactive) in each case. Also, the GI50 in the assay on XF498 is > 100 µM (inactive).

For `COc1cc2c(cc1OC)C1c3ccccc3C(C#N)(C2)N(C(=O)c2ccccc2)C1O` (stereo unspecified), the GI50 in the assay with DMS-114 was 41.2 µM (inactive); with DMS-273 it was 29.6 µM (inactive); in the assay on HOP-18 it was > 100 µM (inactive); in the assay with KM-20L2, 82.4 µM (inactive); in the assay on LXFL 529, 46.6 µM (inactive); with M19-MEL it was > 100 µM (inactive). In addition, the GI50 with RXF 631 was > 100 µM (inactive); with SNB-78 it was 37.1 µM (inactive); in the assay with XF498, 24.8 µM (inactive).

As for `CC1(O)CC2C(CC1SC1CC3C(CC1(C)O)C3(C)C)C2(C)C` (stereo unspecified), the GI50 in the assay on DMS-114 is 48.5 µM (inactive); in the assay on DMS-273, 41.5 µM (inactive); in the assay with HOP-18, 35.2 µM (inactive); in the assay on LXFL 529, 52.2 µM (inactive); in the assay with M19-MEL, 24.9 µM (inactive); with SNB-78, 73.3 µM (inactive). Also, in the assay with XF498, the GI50 was 35.1 µM (inactive).

On to `CC1=C(CC2C(=O)N(c3ccccc3)S(=O)(=O)NC2C)C(=O)N(c2ccccc2)S(=O)(=O)N1C` (stereo unspecified), for which the GI50 in the assay on DMS-114, with DMS-273, in the assay with KM-20L2, in the assay on LXFL 529, in the assay with M19-MEL and with RXF 631 was > 100 µM (inactive) each time. The GI50 in the assay on SNB-78 and in the assay with XF498 was > 100 µM (inactive) throughout.

Consider `CC1CCCC(C(O)CC2CC(=O)N(c3ccccc3)C(=O)C2)C1=O` (stereo unspecified), for which the GI50 in the assay on DMS-114, with DMS-273, in the assay on HOP-18, in the assay on KM-20L2, in the assay on LXFL 529 and in the assay on M19-MEL was > 100 µM (inactive) each time. Besides, in the assay with SNB-78, the GI50 was > 100 µM (inactive).

For `COc1c(O)c2c3c(c(C)cc(O)c3c1O)C(=O)C(O)(C(C)(C)C(C)=O)C2=O` (stereo unspecified), the GI50 was > 100 µM (inactive) in the assay on DMS-273; > 100 µM (inactive) in the assay on HOP-18; > 100 µM (inactive) with KM-20L2; > 100 µM (inactive) with LXFL 529; 14.7 µM (inactive) and 18.4 µM (inactive) in the assay with M19-MEL; 71.8 µM (inactive) with SNB-78. In addition, the GI50 in the assay with XF498 was > 100 µM (inactive).

As for `Clc1ccc(OCc2nnc3n2N=C(c2ccccc2)CS3)cc1`, the GI50 was 16 µM (inactive) in the assay with DMS-273; 15.2 µM (inactive) in the assay with KM-20L2; 13.6 µM (inactive) in the assay on LXFL 529; 16.9 µM (inactive) with M19-MEL; 14 µM (inactive) in the assay with RXF 631; 17.1 µM (inactive) in the assay on XF498.

Regarding `N#CC1=C(Cl)NC(Cl)=C(C#N)C1c1ccc(Cl)cc1`, the GI50 is 15.2 µM (inactive) in the assay with DMS-114; 17.1 µM (inactive) in the assay with DMS-273; 17.6 µM (inactive) in the assay with HOP-18; 24.6 µM (inactive) with KM-20L2; 16.4 µM (inactive) in the assay with LXFL 529; 13 µM (inactive) in the assay with RXF 631. Moreover, the GI50 with SNB-78 was 25.9 µM (inactive); with XF498, 14.1 µM (inactive).

With `COc1cc2c(c(OC)c1OC)-c1ccc(OC)c(=O)cc1C(NC(=O)COc1ccccc1)CC2` (stereo unspecified), the GI50 in the assay with DMS-114 is < 0.01 µM (active); with DMS-273, < 0.01 µM (active); with HOP-18, > 100 µM (inactive); with KM-20L2, < 0.01 µM (active); with LXFL 529, < 0.01 µM (active); in the assay on M19-MEL, < 0.01 µM (active). The GI50 in the assay with RXF 631 is < 0.01 µM (active); in the assay with SNB-78, < 0.01 µM (active); with XF498, < 0.0625 µM (active).

For the compound `O=C1C2C(C(=O)N1c1ccccc1)C1([N+](=O)[O-])C=C3c4ccccc4N(C(=O)c4ccccc4)C32C2C(=O)N(c3ccccc3)C(=O)C21` (stereo unspecified), the GI50 in the assay with DMS-114, with DMS-273, with LXFL 529, with M19-MEL, with RXF 631 and with SNB-78 was > 100 µM (inactive) each time. In addition, in the assay on XF498, the GI50 was > 100 µM (inactive).

As for `COC(=O)[C@@]12C(=O)C=CC(=O)[C@@H]1C1C(=CC2COC(C)=O)O[C@@H]2OC3(CCCCC3)O[C@H]12` (stereo partly specified), the GI50 with DMS-114 was 4.92 µM (inactive); in the assay on DMS-273, 8.61 µM (inactive); in the assay on HOP-18 it was 10.3 µM (inactive); in the assay with KM-20L2, 15.2 µM (inactive); with LXFL 529, 4.28 µM (inactive); in the assay on M19-MEL, 15.5 µM (inactive). The figures for the GI50 with RXF 631, in the assay on SNB-78 and with XF498 were 21.9 µM (inactive), 21.5 µM (inactive) and 13.2 µM (inactive), respectively.

On to `O=[N+]([O-])c1ccc(-n2nnc(C3=NCCN3)c2-c2ccccc2)cc1`, for which the GI50 in the assay with DMS-114, in the assay on DMS-273, in the assay with HOP-18, with KM-20L2, with LXFL 529 and with M19-MEL was > 100 µM (inactive) in each case. Besides, the GI50 in the assay on SNB-78 and in the assay on XF498 was > 100 µM (inactive) in each case.

On to `CCN(c1n[n+]2c(-c3ccccc3)csc2s1)c1n[n+]2c(-c3ccccc3)csc2s1`, for which the GI50 in the assay on DMS-114 is 25.9 µM (inactive); in the assay with DMS-273, 46.8 µM (inactive); with HOP-18 it was > 100 µM (inactive); with KM-20L2, 72.8 µM (inactive); in the assay with LXFL 529, 50.9 µM (inactive); with M19-MEL it was 33.3 µM (inactive). Also, the GI50 in the assay with SNB-78 was > 100 µM (inactive); in the assay with XF498, 70.6 µM (inactive).

Consider `Cc1c(C(=O)/C=C/c2ccccc2)[n+]([O-])c2ccccc2[n+]1[O-]`, for which the GI50 was 10.2 µM (inactive) with DMS-114; 15.8 µM (inactive) in the assay with DMS-273; 18.7 µM (inactive) in the assay with HOP-18; 18 µM (inactive) in the assay on KM-20L2; 13 µM (inactive) in the assay on LXFL 529; 15.7 µM (inactive) in the assay on M19-MEL. Besides, the figures for the GI50 in the assay on SNB-78 and in the assay on XF498 were 34.3 µM (inactive) and 11.9 µM (inactive), respectively.

In the case of `CC1(Cl)CC(C)(/C=C/Cl)C(Cl)CC1Cl` (stereo unspecified), the GI50 is 13.2 µM (inactive) in the assay on KM-20L2; 14.7 µM (inactive) in the assay on LXFL 529; 18.7 µM (inactive) in the assay with M19-MEL; 12.8 µM (inactive) with RXF 631; 20.9 µM (inactive) with SNB-78; 14.4 µM (inactive) in the assay on XF498.

Take `CC1=CCCC2C(C=O)(C1)CC(C)C2(CO)CC/C(=C/CO)CO` (stereo unspecified): the GI50 in the assay on DMS-114 was > 100 µM (inactive); in the assay with DMS-273, > 100 µM (inactive); in the assay with HOP-18 it was > 100 µM (inactive); in the assay with LXFL 529 it was 79.3 µM (inactive); with M19-MEL, > 100 µM (inactive); in the assay on RXF 631 it was > 100 µM (inactive). Also, the GI50 with SNB-78 was > 100 µM (inactive).

As to `C\C=C/C=C/C=C/C(=O)O`, the GI50 in the assay on DMS-114, in the assay with DMS-273, with HOP-18, in the assay on KM-20L2, with LXFL 529 and with SNB-78 was > 100 µM (inactive) each time.

`COC(=O)C1=C(O)c2cc3c(cc2[C@H](c2cc(OC)c(OC)c(OC)c2)C1)OCO3`: the GI50 in the assay with DMS-114 was 41.2 µM (inactive); in the assay on DMS-273 it was 28.6 µM (inactive); in the assay on HOP-18, > 100 µM (inactive); in the assay on KM-20L2, 25.3 µM (inactive); in the assay with LXFL 529, 37.8 µM (inactive); in the assay with M19-MEL it was 0.478 µM (active). Further, the values for the GI50 in the assay on RXF 631, in the assay with SNB-78 and in the assay on XF498 were 54.7 µM (inactive), 87.1 µM (inactive) and 25.9 µM (inactive), respectively.

For the compound `Cc1cccc(C)c1NC(=O)CCC(=O)/N=C(\N)NC#N`, the GI50 with DMS-114, with HOP-18, in the assay on KM-20L2, with LXFL 529, with M19-MEL and in the assay with RXF 631 was > 100 µM (inactive) in each case. In addition, in the assay with XF498, the GI50 is > 100 µM (inactive).
